# Source: article PMC6769459, “Inhibition of Tyrosine-Phosphorylated STAT3 in Human Breast and Lung Cancer Cells by Manuka Honey is Mediated by Selective Antagonism of the IL-6 Receptor” (International Journal of Molecular Sciences, 2019)
# Where “and” joins values, the source holds several entries; their conditions need not be identical. Equal entries are not always repeated. Entries after “also recorded” stand apart in the source; their conditions may differ.
# How the values were obtained:
# [1] = biological target: T1, IL-6Rα (Homo sapiens, UniProt P08887); assay: ELISA-based competitive binding assay, IL-6 binding to immobilized IL-6Rα
# T1 construct: purchased R&D Systems
# T1 sequence (P08887 20-355 limits assumed): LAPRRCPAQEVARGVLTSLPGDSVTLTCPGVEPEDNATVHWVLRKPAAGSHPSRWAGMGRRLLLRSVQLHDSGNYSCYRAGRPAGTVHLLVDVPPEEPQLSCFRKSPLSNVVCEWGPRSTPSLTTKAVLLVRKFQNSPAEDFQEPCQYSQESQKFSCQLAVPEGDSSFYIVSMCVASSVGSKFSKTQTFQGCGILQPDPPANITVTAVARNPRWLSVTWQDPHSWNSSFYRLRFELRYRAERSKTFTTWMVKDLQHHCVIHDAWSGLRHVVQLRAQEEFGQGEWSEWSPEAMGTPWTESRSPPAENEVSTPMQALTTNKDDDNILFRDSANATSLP
# Protocol: We used an ELISA-based assay to determine if MH can bind to recombinant IL-6Rα, IL-8R, and IL-11Rα proteins (all purchased from R&D Systems; Minneapolis, MN, USA). IL-6Rα (2 μg/mL), IL-8R (0.5 μg/mL), or IL-11Rα (1 μg/mL) proteins were coated on 96-well plates by overnight incubation at 4 °C. The plates were then washed with PBS + 0.05% tween 20 and blocked with PBS containing 1% BSA for 1 h at room temperature. For competition assay, various concentrations of MH (0.03–3%) were added to recombinant receptor-coated plates and incubated for 1 h at room temperature. After thorough washing, recombinant IL-6, IL-8, or IL-11 cytokines were added (50 ng/mL) and incubated for 1 h at 37 °C. The plates were then thoroughly washed and biotin-conjugated mAbs to IL-6 (0.25 µg/mL), IL-8 (0.5 µg/mL) or IL-11 (0.5 µg/mL) were added for 1 h at room temperature. After another round of washing, HRP-conjugated streptavidin was added for 30 min, washed, and developed by adding 3,3′,5,5′-Tetramethylbenzidine (TMB) substrate for 10 min. Additionally, the potential effect of flavonoid compounds (luteolin, quercetin, galangin, and chrysin; dose range 0.5–50 μM) on binding to IL-6Rα was investigated in the same assay. The dose-response was modeled based on mass-action kinetic drug-response interactions.
# [2] = tested on: STAT3 in different types of cancer cells; parameters: method as in PMID 16651438, PMID 23145121, PMID 24525192, PMID 24998588, PMID 26527884; conditions: different cancer cell types; cited from earlier work
# [3] = tested on: p-STAT3 in MDA-MB-231 cells; assay: Western blot of p-STAT3 / total STAT3 in MDA-MB-231 cells; type: cell-based, human; conditions: for IC50: Homo sapiens, MDA-MB-231, 1 h, MDA-MB-231, 1 h treatment, densitometry of Western blots, approximate, read-out: IC50 for inhibition of p-STAT3 levels
# Protocol: The expression of different proteins involved in IL-6 signaling pathway was analyzed by Western blots, as previously described. Briefly, MDA-MB-231 or A549 cells (2 × 10^6 cells/well) were seeded overnight in DMEM/RPMI plus 2% FBS, followed by incubation with MH or sugar control (SC) in 5% FBS-DMEM/RPMI for different times, as indicated in the figures. In some studies, we investigated the effect of treatment with different flavonoid compounds on p-STAT3 expression using a range of doses (0.4–50 μM). In other experiments, we also studied the effect of incubating MDA-MB-231 cells in the presence of Brefeldin A (BFA; 1 mg/mL) alone or with 1% MH for 4 h on p-STAT3 levels. Cell extracts were prepared in RIPA buffer and subjected to Western blot analysis using antibodies (purchased from Cell Signaling Technology, Danvers, MA, USA) specific to total STAT3 (t-STAT3), tyrosine-phosphorylated (Tyr705) STAT3 (p-STAT3), gp130, JAK2, tyrosine-phosphorylated (Tyr1007/1008) JAK2 (p-JAK2), tyrosine-phosphorylated (Tyr416) Src family (p-Src), total Src, and β-actin. Densitometric analysis of the band intensity on the blots was done using ImageJ (National Institutes of Health, USA). We modeled the binding inhibition pharmacodynamics of p-STAT3 levels as standard drug-receptor interactions based on mass-action kinetics. Specifically, dose response was modelled as: Y=[L]/[L]+K where Y is the receptor occupancy, L is the ligand concentration, and K is a compound-specific association constant.
# Statistical significance between control and treated groups was analyzed using the unpaired, two-tailed Student’s t-test, using the statistical program of GraphPad Prism version 6 software (San Diego, CA, USA). For multiple comparisons, we used ordinary two-way ANOVA (GraphPad Prism). Differences between the experimental groups were considered significant when p values were <0.05. Nonlinear regression best-fit curve analysis was used to determine the IC50 for p-STAT3 inhibition.
# [4] = tested on: p-STAT3 in human bladder cancer cells; parameters: method as in PMID 29805643; conditions: 40–80 μM, mostly after 24 h; cited from earlier work
# [5] = tested on: p-STAT3 in lung cancer cells; parameters: method as in PMID 25830055; conditions: 66 μM, 12–24 h; cited from earlier work
# [6] = 10-fold lower concentration (5 μM)
SMILES,inhibition of IL-6 binding to IL-6Rα ([1]; 50 μM flavonoid),concentration range at which inhibitory effects were observed [2],IC50 [3],binding to IL-6Rα ([1]; up to 50 μM),p-STAT3 [4],"inhibition of IL-6 binding to IL-6Rα [1, 6]",p-STAT3 levels [5],"p-STAT3 levels ([3]; MDA-MB-231, 4 h, Brefeldin A 1 mg/mL alone or with 1% MH)"
O=c1cc(-c2ccc(O)c(O)c2)oc2cc(O)cc(O)c12 [luteolin],22.4%,20 to 50 µM,~3.5 µM and 1 µg/mL,,,,,
O=C1C[C@@H](c2ccccc2)Oc2cc(O)cc(O)c21 [pinocembrin],,,~70.2 µM and 18 µg/mL,no significant binding; also recorded: inability to detect any binding,,,,
O=c1cc(-c2ccccc2)oc2cc(O)cc(O)c12 [chrysin],31.8%,,~7.7 µM and 2 µg/mL,,inhibit p-STAT3,decreased but significant inhibition,,
O=c1c(O)c(-c2ccc(O)c(O)c2)oc2cc(O)cc(O)c12 [quercetin],29.2%,,~51 µM and 15.4 µg/mL,,,decreased but significant inhibition,reduce p-STAT3 levels,
C[C@H]1CCC/C=C/[C@@H]2C[C@H](O)C[C@H]2[C@H](O)/C=C/C(=O)O1 [Brefeldin A],,,,,,,,significant loss
O=c1c(O)c(-c2ccccc2)oc2cc(O)cc(O)c12 [galangin],34.3%,,~4.4 µM and 1.2 µg/mL,,,decreased but significant inhibition,,
